Data set [1] in a line: Plasma carnitine and O-acetylcarnitine levels in longitudinal samples of autistic subjects versus controls (FIG. 4). The data set is classed as in vivo, human. The conditions noted are these: all ASD subjects taking acetyl-carnitine. The text has this: FIG. 4 is a graph illustrating levels of carnitine and O-acetylcarnitine in longitudinal samples collected over the course of one year from individual subjects diagnosed with autism versus controls. Values are control normalized and expressed as mean+/−SEM, n=3 for each child, n=30 for controls, *, p<0.05 vs. control;
(§1) Sample Collection. Three plasma samples were collected from 15 clinically diagnosed ASD subjects and 12 non-ASD controls over a 12 month period (six month interval between samplings). Four subjects were treated with carnitine (A09, A11, A13, A15). Table 1 outlines the clinical characteristics of the subjects studied. Social cognition scores were determined using methods known in the art.
(§2) Acetyl-carnitine is not approved nor has it been proven to be effective in ASD. To illustrate the utility of a method of monitoring ASD therapy as disclosed herein, the diagnostic ASD biomarkers described above were quantified in subjects taking acetyl-carnitine supplements. FIG. 4 illustrates the carnitine and acetyl carnitine levels in all of the subjects. […] All of the subjects taking acetyl-carnitine had elevated levels of both carnitine and acetyl-carnitine.

Data set [2] has as its system autism biomarkers. Kind of data set: Monitoring the biochemical efficacy of carnitine supplementation on autism biomarkers in plasma (FIG. 5). The data set is classed as in vivo, human.
From the text: FIG. 5 is a graph illustrating levels of key DHA and AA containing PlsEtn and VLCFA containing PtdEtn in longitudinal samples collected over the course of one year from autistic subjects taking carnitine supplements [n=12 (4×3)] vs. subjects not taking carnitine supplements [n=33 (11×3)] and vs. controls [n=30 (10×3)]. Values control-normalized and expressed as mean+/−SEM of the ratio to PtdEtn 16:0/18:0, *, p<0.05 vs. control, #, p<0.05 vs. autism, no carnitine; and
as §1
LC-MS/MS flow injection analyses. Analyses were performed using a linear ion trap mass spectrometer (4000 Q TRAP, Applied Biosystems) coupled with an Agilent 1100 LC system. Sample was prepared by adding 15 μL of internal standard (5 μg/mL of (24-^13C)-Cholic Acid (Cambridge Isotope Laboratories, Andover, Mass.) in methanol) to 120 μL ethyl acetate fraction of each sample. 100 μl of sample was injected by flow injection analysis (FIA), and monitored under negative APCI mode. The method was based on multiple reaction monitoring (MRM) of one parent/fragment transition for each metabolite and (24-^13C)-Cholic Acid. Each transition was scanned for 70 ms. 10% EtOAc in MeOH at a flow rate of 360 μl/min was used as the mobile phase. The source parameters were set as follows: CUR: 10.0, CAD: 8, NC: −4.0, TEM: 400, GS1: 30, GS2: 50, interface heater on. The compound parameters were set as follows: DP: −120.0, EP: −10, NC: −4.0, CE: −40, CXP: −15. A standard curve was generated for all analytes to verify instrument linearity by serial dilution of a healthy normal serum extract with constant concentration of (24-^13C)-Cholic Acid. All samples were analyzed in a randomized blinded manner and were bracketed by known serum standard dilutions. All standard curves had r^2 values >0.98.
as §2
Comparison of the plasma levels of the eight most descriptive metabolites between the carnitine+/−autistic subjects and controls, determined that the effect of carnitine on the autism biomarkers was striking (FIG. 5). […] However, the rate of elongation and desaturation of mono- and di-unsaturated fatty acid precursors appear to be unaffected and a compensatory elevation in AA appears to occur.

Where [3] appears, read: autistic subjects taking carnitine vs not taking and vs controls.

In the case of `C[N+](C)(C)CC(O)CC(=O)[O-]` (centres unmarked) [carnitine], in data set [1], the “Plasma levels in subjects taking acetyl-carnitine” value is given as “elevated”. In addition, the “Levels of AA-PtdEtn (20:4) in subjects taking carnitine” value in data set [2] is listed as “significantly elevated”. Further, in data set [2] (setting [3]), the “Effect on DHA-PlsEtn” value is given as “Complete normalization”, the “Effect on DHA-PtdEtn” value is listed as “Complete normalization”, the “Effect on saturated VLCFA (28:0)” value is “Complete normalization” and the “Effect on the DHA precursor (24:6)” value is “Complete normalization”. In data set [2] (carnitine supplementation), the “Effect on 26:3 PdtEtn” value is on record as “no significant effect” and the “Effect on 28:1 PdtEtn” value is “no significant effect”.

(Values after US8273575B2, “Methods for the diagnosis, risk assessment, and monitoring of autism spectrum disorders” (Phenomenome Discoveries Inc., priority 2007, dated 2012).)
